# Test system: ATXN3-HiBiT protein
# Experiment: ATXN3 Total Protein Assay (Kelly-ATXN3-HiBiT luminescence)
# Assay type: cell-based
# Conditions: Kelly-ATXN3-HiBiT cells, 48 h after addition of compound
# From the text: Example 36: ATXN3 Total Protein Assay
# To monitor ATXN3 protein levels by luminescence, a Kelly-ATXN3-HiBiT cell line with homozygous knock-in of HiBiT at the C-terminus of the endogenous ATXN3 gene was used (knock-in of the HiBiT-tag coding sequence SEQ ID NO. 14: 5′[…]3′ into exon 11 of ATXN3-position 1114 of ATXN3 RefSeq NM_004993.6). Manipulations of the Kelly-ATXN3-HiBiT cell line that result in downregulation of the ATXN3-HiBiT protein (through modulation of ATXN3-HiBiT pre-mRNA splicing) can be followed by monitoring the luminescence signal of the HiBiT tag using the Nano Glo HiBiT Lytic Detection System (Promega, #N3050). Kelly-ATXN3-HiBiT cells were maintained in RPMI 1640 w/Glutamax (Gibco, #61870010), 10% FBS (Sigma Aldrich, #F8687), 1% Penicillin/Streptomycin (Gibco, #15140-122) at 37° C., 5% CO2. To assess HiBiT-luminescence signal upon compound treatment, 2000 Kelly-ATXN3-HiBiT cells were seeded per well in 384 plate format. Compounds were added 24 h after seeding. ATXN3-HiBiT-luminescence signal was read out 48 h after addition of the compound using the Nano Glo HiBiT Lytic Detection System (Promega, #N3050) according to the manufacturer's instructions. To control for cell viability, an identically prepared sister plate was read out with the CellTiter-Glo® 2.0 Assay (Promega, #G9243) according to the manufacturer's instructions. Fold changes of ATXN3-HiBiT-luminescence and of CellTiter-Glo viability signals were calculated relative to a DMSO control condition.
row,SMILES,EC50
1,"C[C@H](N)Cc1oc2c(NCc3ccccc3OC(F)(F)F)cc(Cl)nc2c1Br [Compound 349, 2-[(S)-2-aminopropyl]-3-bromo-5-chloro-7-{[(o-trifluoromethoxyphenyl)methyl]amino}-1-oxa-4-azaindene]",10 to 40 µM
2,"C[C@H](N)Cc1oc2c(NCc3ccc(F)c(F)c3F)cc(Cl)nc2c1Br [Compound 351, 2-[(S)-2-aminopropyl]-3-bromo-5-chloro-7-{[(2,3,4-trifluorophenyl)methyl]amino}-1-oxa-4-azaindene]",10 to 40 µM
3,"CC(O)c1oc2c(NCc3cccs3)cc(Cl)nc2c1Br (stereo not drawn) [Compound 355, 1-(3-bromo-5-chloro-7-((thiophen-2-ylmethyl)amino)furo[3,2-b]pyridin-2-yl)ethan-1-ol]",5 to 10 µM
4,"COC(C)c1oc2c(NCc3cccs3)cc(Cl)nc2c1Br (stereo not drawn) [Compound 356, 3-bromo-5-chloro-2-(1-methoxyethyl)-N-(thiophen-2-ylmethyl)furo[3,2-b]pyridin-7-amine]",10 to 40 µM

# Test system: ATXN3 transcripts containing exon 4
# Experiment: ATXN3 Quantitative Splicing Assay (qPCR, E4E5 primers/probe)
# Assay type: cell-based
# Conditions: Homo sapiens, SK-N-MC cells, compounds for 24 h
# Method: Example 34: ATXN3 Quantitative Splicing Assay
# Human neuroblastoma SK-N-MC cells were plated in 384-well plates at 20,000 cells/well. Twenty-four hours after plating, cells were treated with compounds for 24 h at appropriate concentrations ranging from 30 μM to 0.6 nM (0.300 DMSO). Treated cells were lysed in 15 μL of lysis buffer, and cDNA was synthesized using the Fast Advanced Cells-to-Ct kit. Two […] of each cDNA was used in qPCR reactions to confirm the exon 4 skipped transcripts of ATXN3. A second set of primers/probe E4E5 was used to detect the transcripts containing exon 4. The third set of primers/probe E8E9 was used to detect total gene level of ATXN3. The qPCR reactions were prepared in 384-well plates in 10 μL volume, using TaqMan™ Fast Advanced Master Mix with primers and probes shown in the table below. Reactions were run in a Quant Studio 6 qPCR instrument with default settings.
# The primers and probes are listed below in Table 4.
row,SMILES,IC50
1,"N[C@H]1CCCC[C@H]1c1cc2nc(Cl)cc(NCc3cccs3)c2o1 (racemic) [Compound 363, rac-2-[(1R,2S)-2-aminocyclohexyl]-5-chloro-N-(thiophen-2-ylmethyl)furo[3,2-b]pyridin-7-amine]",0.501 to 5 µM
2,"N[C@H]1CC[C@@H]1c1oc2c(NCc3cccs3)cc(Cl)nc2c1Br (racemic) [Compound 367, 2-(2-aminocyclobutyl)-3-bromo-5-chloro-N-(thiophen-2-ylmethyl)furo[3,2-b]pyridin-7-amine]",0.101 to 0.5 µM
3,"N[C@@H]1CC[C@H]1c1oc2c(NCc3cccs3)cc(Cl)nc2c1Br (single isomer, unassigned) [Compound 290]",0.501 to 5 µM
4,"N[C@H]1CC[C@@H]1c1oc2c(NCc3cccs3)cc(Cl)nc2c1Br (single isomer, unassigned) [Compound 291]",0.101 to 0.5 µM
5,"N[C@H]1CC(F)(F)C[C@@H]1c1oc2c(NCc3cccs3)cc(Cl)nc2c1Br (single isomer, unassigned) [Compound 369]",5 to 10 µM
6,"N[C@@H]1CC(F)(F)C[C@H]1c1oc2c(NCc3cccs3)cc(Cl)nc2c1Br (single isomer, unassigned) [Compound 388]",0.101 to 0.5 µM
7,"C[C@H](F)[C@H](N)Cc1oc2c(NCc3cccs3)cc(C#N)nc2c1Cl [Compound 104, 2-[(2R,3S)-2-amino-3-fluorobutyl]-3-chloro-7-thenylamino-1-oxa-4-aza-5-indenecarbonitrile]",0.101 to 0.5 µM
8,"N[C@H]1CCC[C@@H]1c1oc2c(NCc3cccs3)cc(Cl)nc2c1Br [Compound 170, 2-[(1S,2S)-2-aminocyclopentyl]-3-bromo-5-chloro-7-thenylamino-1-oxa-4-azaindene]",1e-05 to 0.1 µM
9,"N[C@@H]1CCC[C@H]1c1oc2c(NCc3cccs3)cc(Cl)nc2c1Br [Compound 172, 2-[(1R,2R)-2-aminocyclopentyl]-3-bromo-5-chloro-7-thenylamino-1-oxa-4-azaindene]",0.501 to 5 µM
10,"N[C@H]1CCCC[C@@H]1c1oc2c(NCc3cccs3)cc(Cl)nc2c1Br [Compound 174, 2-[(1,2S)-2-aminocyclohexyl]-3-bromo-5-chloro-7-thenylamino-1-oxa-4-azaindene]",1e-05 to 0.1 µM
11,"N[C@@H]1CCCC[C@H]1c1oc2c(NCc3cccs3)cc(Cl)nc2c1Br [Compound 176, 2-[(1R,2R)-2-aminocyclohexyl]-3-bromo-5-chloro-7-thenylamino-1-oxa-4-azaindene]",0.501 to 5 µM
12,"C#Cc1c(C[C@@H](N)[C@H](C)F)oc2c(NCc3cccs3)c(F)c(Cl)nc12 [Compound 278, 2-[(2R,3S)-2-amino-3-fluorobutyl]-5-chloro-3-ethynyl-6-fluoro-7-thenylamino-1-oxa-4-azaindene]",0.101 to 0.5 µM
13,"C[C@H](N)Cc1oc2c(NCc3ccco3)cc(Cl)nc2c1C(=O)N(C)C [Compound 357, 2-[(2S)-2-aminopropyl]-5-chloro-7-[(furan-2-ylmethyl)amino]-N,N-dimethylfuro[3,2-b]pyridine-3-carboxamide]",10 to 40 µM
14,"CNC(=O)c1c(C[C@H](C)N)oc2c(NCc3ccco3)cc(Cl)nc12 [Compound 358, 2-[(2S)-2-aminopropyl]-5-chloro-7-[(furan-2-ylmethyl)amino]-N-methylfuro[3,2-b]pyridine-3-carboxamide]",10 to 40 µM
15,"COc1cccc(CNc2cc(Cl)nc3c(Br)c(C[C@H](C)N)oc23)c1F [Compound 359, 2-[(S)-2-aminopropyl]-3-bromo-5-chloro-7-{[(2-fluoro-3-methoxyphenyl)methyl]amino}-1-oxa-4-azaindene]",10 to 40 µM
16,"COCc1oc2c(NCc3cccs3)cc(Cl)nc2c1Br [Compound 360, 3-bromo-5-chloro-2-(methoxymethyl)-N-(thiophen-2-ylmethyl)furo[3,2-b]pyridin-7-amine]",5 to 10 µM
17,"COc1cc(CNc2cc(Cl)nc3c(Br)c(C[C@H](C)N)oc23)ccn1 [Compound 361, 2-[(S)-2-aminopropyl]-3-bromo-5-chloro-7-{[(2-methoxy-4-pyridyl)methyl]amino}-1-oxa-4-azaindene]",10 to 40 µM
18,"COc1cccc(CNc2cc(Cl)nc3c(Br)c(C[C@H](C)N)oc23)c1 [Compound 362, 2-[(S)-2-aminopropyl]-3-bromo-5-chloro-7-{[(m-methoxyphenyl)methyl]amino}-1-oxa-4-azaindene]",5 to 10 µM
19,"C[C@H](N)Cc1oc2c(NCc3ccco3)cc(Cl)nc2c1-c1nnco1 [Compound 364, 2-[(2S)-2-aminopropyl]-5-chloro-N-(furan-2-ylmethyl)-3-(1,3,4-oxadiazol-2-yl)furo[3,2-b]pyridin-7-amine]",0.501 to 5 µM
20,"C[C@H](N)Cc1oc2c(NCc3ccco3)cc(Cl)nc2c1-c1ncc(C(N)=O)o1 [Compound 365, 2-{2-[(2S)-2-aminopropyl]-5-chloro-7-[(furan-2-ylmethyl)amino]furo[3,2-b]pyridin-3-yl}-1,3-oxazole-5-carboxamide]",10 to 40 µM
21,"C[C@H](N)Cc1oc2c(NCc3ccco3)cc(Cl)nc2c1-c1ncc(C#N)o1 [Compound 366, 2-{2-[(2S)-2-aminopropyl]-5-chloro-7-[(furan-2-ylmethyl)amino]furo[3,2-b]pyridin-3-yl}-1,3-oxazole-5-carbonitrile]",10 to 40 µM
22,"Clc1cc(NCc2cccs2)c2oc(OCC3CCC3)c(Br)c2n1 [Compound 368, 3-bromo-5-chloro-2-(cyclobutylmethoxy)-N-(thiophen-2-ylmethyl)furo[3,2-b]pyridin-7-amine]",0.501 to 5 µM
23,"N[C@H]1COC[C@@H]1c1oc2c(NCc3cccs3)cc(Cl)nc2c1Br [Compound 373, 2-[(3R,4R)-4-aminotetrahydro-3-furyl]-3-bromo-5-chloro-7-thenylamino-1-oxa-4-azaindene]",0.101 to 0.5 µM
24,"N[C@@H]1COC[C@H]1c1oc2c(NCc3cccs3)cc(Cl)nc2c1Br [Compound 374, 2-[(3S,4S)-4-aminotetrahydro-3-furyl]-3-bromo-5-chloro-7-thenylamino-1-oxa-4-azaindene]",10 to 40 µM
25,"N[C@H]1CCC(F)(F)C[C@@H]1c1oc2c(NCc3cccs3)cc(Cl)nc2c1Br [Compound 380, 2-[(1S,2S)-2-amino-5,5-difluorocyclohexyl]-3-bromo-5-chloro-7-thenylamino-1-oxa-4-azaindene]",0.101 to 0.5 µM
26,"C#Cc1c([C@H]2CCCC[C@@H]2N)oc2c(NCc3cccs3)cc(Cl)nc12 [Compound 385, 2-[(1S,2S)-2-aminocyclohexyl]-5-chloro-3-ethynyl-7-thenylamino-1-oxa-4-azaindene]",1e-05 to 0.1 µM
